In ChEMBL document CHEMBL3608230, “Design, synthesis and RON receptor tyrosine kinase inhibitory activity of new head groups analogs of LCRF-0004” (Bioorg Med Chem Lett, 2015):

Legend:
[1] = biological target: Hepatocyte growth factor receptor (Homo sapiens, UniProt P08581); experiment: Inhibition of c-Met phosphorylation in human MKN45 cells; format: cell-based, MKN-45
[2] = biological target: Macrophage-stimulating protein receptor (Homo sapiens, UniProt Q04912); experiment: Inhibition of human RON
Chain of Macrophage-stimulating protein receptor (Q04912 25-304 limits assumed): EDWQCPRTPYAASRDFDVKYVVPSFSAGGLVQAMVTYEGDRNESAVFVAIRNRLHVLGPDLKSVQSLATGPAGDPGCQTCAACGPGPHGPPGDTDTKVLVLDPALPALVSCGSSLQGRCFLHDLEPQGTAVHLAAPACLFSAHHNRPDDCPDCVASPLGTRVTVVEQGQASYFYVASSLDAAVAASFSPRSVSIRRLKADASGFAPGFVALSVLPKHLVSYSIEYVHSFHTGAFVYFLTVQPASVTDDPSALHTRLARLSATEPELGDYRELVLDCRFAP
Chain of Macrophage-stimulating protein receptor (Q04912 310-1400 limits assumed): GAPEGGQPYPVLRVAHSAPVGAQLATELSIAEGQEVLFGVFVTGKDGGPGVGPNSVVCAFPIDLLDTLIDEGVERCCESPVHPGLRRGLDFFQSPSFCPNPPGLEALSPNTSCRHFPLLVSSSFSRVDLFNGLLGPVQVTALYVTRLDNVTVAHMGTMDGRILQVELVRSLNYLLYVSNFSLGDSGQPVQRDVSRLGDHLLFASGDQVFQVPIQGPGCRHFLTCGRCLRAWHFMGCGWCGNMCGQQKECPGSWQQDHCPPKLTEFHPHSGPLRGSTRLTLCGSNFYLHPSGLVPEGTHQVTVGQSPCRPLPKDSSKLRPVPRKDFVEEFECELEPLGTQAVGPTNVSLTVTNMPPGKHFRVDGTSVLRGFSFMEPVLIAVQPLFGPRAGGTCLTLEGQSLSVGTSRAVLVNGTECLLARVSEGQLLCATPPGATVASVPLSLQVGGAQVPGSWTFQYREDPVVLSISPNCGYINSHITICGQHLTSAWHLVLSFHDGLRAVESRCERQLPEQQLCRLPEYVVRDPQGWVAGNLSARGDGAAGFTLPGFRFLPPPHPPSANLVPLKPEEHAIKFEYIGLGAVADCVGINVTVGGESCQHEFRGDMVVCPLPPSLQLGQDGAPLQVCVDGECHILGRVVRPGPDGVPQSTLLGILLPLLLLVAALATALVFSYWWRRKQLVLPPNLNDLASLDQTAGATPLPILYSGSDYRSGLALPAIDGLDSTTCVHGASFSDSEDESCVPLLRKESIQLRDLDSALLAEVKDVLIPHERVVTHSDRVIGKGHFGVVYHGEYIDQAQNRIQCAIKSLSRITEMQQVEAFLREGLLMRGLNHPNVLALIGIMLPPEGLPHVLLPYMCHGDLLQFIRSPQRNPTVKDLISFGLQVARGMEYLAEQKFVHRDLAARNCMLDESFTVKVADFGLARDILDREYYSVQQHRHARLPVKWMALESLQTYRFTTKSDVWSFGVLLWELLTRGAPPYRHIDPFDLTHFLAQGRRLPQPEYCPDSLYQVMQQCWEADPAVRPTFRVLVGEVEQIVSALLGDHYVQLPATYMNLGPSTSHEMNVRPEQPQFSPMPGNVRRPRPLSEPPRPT

Chain of Hepatocyte growth factor receptor (P08581 whole entry): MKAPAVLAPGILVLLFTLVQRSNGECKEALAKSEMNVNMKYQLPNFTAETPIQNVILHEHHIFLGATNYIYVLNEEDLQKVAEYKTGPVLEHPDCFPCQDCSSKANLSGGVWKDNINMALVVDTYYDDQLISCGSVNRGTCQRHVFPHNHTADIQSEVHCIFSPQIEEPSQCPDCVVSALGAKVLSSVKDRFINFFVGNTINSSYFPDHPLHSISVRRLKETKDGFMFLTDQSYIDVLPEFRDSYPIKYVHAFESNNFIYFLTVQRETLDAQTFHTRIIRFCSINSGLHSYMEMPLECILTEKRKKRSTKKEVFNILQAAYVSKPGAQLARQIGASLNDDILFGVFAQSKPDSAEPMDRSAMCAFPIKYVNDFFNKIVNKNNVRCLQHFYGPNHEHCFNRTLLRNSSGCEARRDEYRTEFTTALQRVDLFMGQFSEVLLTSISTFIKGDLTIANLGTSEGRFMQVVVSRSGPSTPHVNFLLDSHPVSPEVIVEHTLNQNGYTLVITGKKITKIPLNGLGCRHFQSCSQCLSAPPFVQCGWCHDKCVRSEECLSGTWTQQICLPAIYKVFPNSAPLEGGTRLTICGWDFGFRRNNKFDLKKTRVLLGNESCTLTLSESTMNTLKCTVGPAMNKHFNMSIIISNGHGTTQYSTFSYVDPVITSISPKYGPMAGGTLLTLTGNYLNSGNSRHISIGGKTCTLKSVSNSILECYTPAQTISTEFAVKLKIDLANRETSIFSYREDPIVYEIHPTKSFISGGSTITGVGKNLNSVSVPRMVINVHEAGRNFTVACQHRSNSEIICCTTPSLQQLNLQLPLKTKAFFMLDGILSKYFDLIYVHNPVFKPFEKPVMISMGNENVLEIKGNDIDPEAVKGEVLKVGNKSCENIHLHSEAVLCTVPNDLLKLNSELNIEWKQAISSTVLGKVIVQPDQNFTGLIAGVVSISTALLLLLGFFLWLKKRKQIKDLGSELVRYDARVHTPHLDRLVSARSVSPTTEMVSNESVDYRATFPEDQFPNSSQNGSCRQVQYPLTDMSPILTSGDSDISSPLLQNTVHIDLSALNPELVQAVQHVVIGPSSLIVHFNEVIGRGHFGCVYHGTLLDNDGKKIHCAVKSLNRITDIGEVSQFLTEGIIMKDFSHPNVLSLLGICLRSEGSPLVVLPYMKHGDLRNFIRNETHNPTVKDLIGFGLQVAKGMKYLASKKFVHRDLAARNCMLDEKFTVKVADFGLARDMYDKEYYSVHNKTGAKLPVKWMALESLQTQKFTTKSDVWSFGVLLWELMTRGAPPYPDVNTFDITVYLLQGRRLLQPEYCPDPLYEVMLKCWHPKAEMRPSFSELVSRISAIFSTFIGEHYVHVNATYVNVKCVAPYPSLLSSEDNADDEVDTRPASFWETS

| SMILES | IC50 [1] [nM] | IC50 [2] [nM] |
| --- | --- | --- |
| Cn1cnc(-c2cc3nccc(Oc4ccc(NC(=O)c5cnn(-c6ccccc6)c5-c5ccncc5)cc4F)c3s2)c1 | > 10000 |  |
| Cn1cnc(-c2cc3nccc(Oc4ccc(NC(=O)c5cc(-c6ccccc6)n(-c6ccccc6)c5)cc4F)c3s2)c1 |  | 101 |
| COc1cccc(-c2c(C(=O)Nc3ccc(Oc4ccnc5cc(-c6cn(C)cn6)sc45)c(F)c3)cnn2-c2ccccc2)c1 |  | 27 |
| COc1ccc(-c2c(C(=O)Nc3ccc(Oc4ccnc5cc(-c6cn(C)cn6)sc45)c(F)c3)cnn2-c2ccccc2)cc1 | > 10000 |  |
